Reference: US20230303570A1, “KINASE INHIBITORS AND USES THEREOF” (ABM Therapeutics Corporation, priority 2020, published 2023)

Key:
Axl = biological target: T1, Axl (Homo sapiens, UniProt P30530); experiment: AXL kinase mobility shift assay; assay type: biochemical
T1 sequence (P30530 26-894): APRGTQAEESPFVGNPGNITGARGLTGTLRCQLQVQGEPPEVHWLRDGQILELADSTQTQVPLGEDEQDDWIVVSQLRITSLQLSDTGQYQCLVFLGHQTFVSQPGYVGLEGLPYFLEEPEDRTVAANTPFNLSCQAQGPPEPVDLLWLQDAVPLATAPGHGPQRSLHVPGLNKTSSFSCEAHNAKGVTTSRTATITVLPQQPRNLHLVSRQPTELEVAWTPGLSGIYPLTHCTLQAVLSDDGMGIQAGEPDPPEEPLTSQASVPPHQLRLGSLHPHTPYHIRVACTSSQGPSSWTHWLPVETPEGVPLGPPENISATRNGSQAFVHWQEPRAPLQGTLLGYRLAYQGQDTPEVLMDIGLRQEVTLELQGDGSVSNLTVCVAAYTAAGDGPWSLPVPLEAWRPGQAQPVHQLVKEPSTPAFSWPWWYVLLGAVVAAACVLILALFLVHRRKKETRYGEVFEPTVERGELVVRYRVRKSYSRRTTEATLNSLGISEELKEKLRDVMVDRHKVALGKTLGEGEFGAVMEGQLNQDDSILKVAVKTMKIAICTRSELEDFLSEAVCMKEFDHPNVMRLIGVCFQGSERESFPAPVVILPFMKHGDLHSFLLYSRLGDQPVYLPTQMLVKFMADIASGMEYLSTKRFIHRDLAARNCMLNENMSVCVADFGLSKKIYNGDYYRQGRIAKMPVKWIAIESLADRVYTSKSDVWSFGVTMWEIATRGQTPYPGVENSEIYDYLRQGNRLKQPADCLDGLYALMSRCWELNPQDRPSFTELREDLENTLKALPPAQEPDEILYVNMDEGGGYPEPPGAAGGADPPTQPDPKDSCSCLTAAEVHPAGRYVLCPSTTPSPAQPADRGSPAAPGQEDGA
Experimental: (§1) The effect of the compounds on the activity of cKit, RET and AXL kinases were assessed by Mobility shift assay. • 1. 1× kinase base buffer and stop buffer for testing kinases were prepared • 1-1) 1× Kinase base buffer (50 mM HEPES, pH 7.5, 0.01% Triton X-100) • 1-2) Stop buffer (100 mM HEPES, pH 7.5, 0.015% Brij-35, 0.2% Coating Reagent #3, 50 mM EDTA) • 2. Compound and assay plate preparation: the compound was diluted to 50× of the final desired highest inhibitor concentration in reaction by 100% DMSO. 100 μl of this compound dilution was transferred to a well in a 96-well plate. For example, if the highest desired concentration was 5 μM, then 250 μM of compound DMSO solution was prepared in this step. For all compounds, the compound was serially diluted by transferring 10 μl to 70 μl of 100 DMSO in the next well and so forth for a total of 5 concentrations. 100 μl of 100% DMSO was added to two empty wells for no compound control and no enzyme control in the same 96-well plate. The plate was labeled as source plate. The intermediate plate was prepared by transferring 10 μl of compound from source plate to a new 96-well plate as the intermediate plate, adding 90 μl of 1× kinase buffer to each well of the intermediate plate, mixing the compounds in intermediate plate for 10 min on shaker. 5 μl of each well from the 96-well intermediate plate were transferred to a 384-well plate in duplicates. For example, A1 of the 96-well plate was transferred to A1 and A2 of the 384-well plate. A2 of the 96-well plate was transferred to A3 and A4 of the 384-well plate, and so on. • 4. Kinase reaction: The assay plate already contained 5 μl of compound in 10% DMSO. A 2.5× enzyme solution was prepared by adding kinases (cKit, RET, or AXL) and DTT in 1× kinase base buffer. 2.5× enzyme solution was transferred to the assay plate (by adding 10 μl of 2.5× enzyme solution to each well of the 384-well assay plate). The plate was incubated at room temperature for 10 min. 2.5× peptide solution was prepared by adding FAM-labeled peptide, ATP, MgCl2 in the 1× kinase base buffer. 2.5× peptide solution was added to the assay plate by adding 10 μl of 2.5× peptide solution to each well of the 384-well assay plate. The plate was incubated at 28° C. for the specified period of time. 25 μl of stop buffer was added to stop reaction. Data was collected on Caliper.

c-Kit = c-Kit (Homo sapiens, UniProt P10721); experiment: cKit kinase mobility shift assay; assay type: biochemical
Experimental: as §1

[1] = Mouse pharmacokinetics study (intravenous and oral); assay type: in vivo; conditions: CD-1 mice
Description: The test articles were formulated in […] Hydroxypropyl-beta-cyclodextrin, either as a clear solution or fine suspension.

HPK1 (MAP4K1) = HPK1 (MAP4K1) (Homo sapiens, UniProt Q92918); experiment: HPK1 (MAP4K1) kinase Lantha screen assay; assay type: biochemical
In short: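 Recombinant MAP4K1 preincubated 10 min with compound (6-point dilution, duplicates) in 50 mM HEPES pH 7.5, 10 mM MgCl2, then reacted with Fluorescein-PKC substrate and ATP for 90 min at room temperature. Antibody detection solution stopped reaction; after 60 min, TR-FRET read at ex 340 nm, em 520/495 nm.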

Chain of HPK1 (MAP4K1) (Q92918 whole entry, species assumed): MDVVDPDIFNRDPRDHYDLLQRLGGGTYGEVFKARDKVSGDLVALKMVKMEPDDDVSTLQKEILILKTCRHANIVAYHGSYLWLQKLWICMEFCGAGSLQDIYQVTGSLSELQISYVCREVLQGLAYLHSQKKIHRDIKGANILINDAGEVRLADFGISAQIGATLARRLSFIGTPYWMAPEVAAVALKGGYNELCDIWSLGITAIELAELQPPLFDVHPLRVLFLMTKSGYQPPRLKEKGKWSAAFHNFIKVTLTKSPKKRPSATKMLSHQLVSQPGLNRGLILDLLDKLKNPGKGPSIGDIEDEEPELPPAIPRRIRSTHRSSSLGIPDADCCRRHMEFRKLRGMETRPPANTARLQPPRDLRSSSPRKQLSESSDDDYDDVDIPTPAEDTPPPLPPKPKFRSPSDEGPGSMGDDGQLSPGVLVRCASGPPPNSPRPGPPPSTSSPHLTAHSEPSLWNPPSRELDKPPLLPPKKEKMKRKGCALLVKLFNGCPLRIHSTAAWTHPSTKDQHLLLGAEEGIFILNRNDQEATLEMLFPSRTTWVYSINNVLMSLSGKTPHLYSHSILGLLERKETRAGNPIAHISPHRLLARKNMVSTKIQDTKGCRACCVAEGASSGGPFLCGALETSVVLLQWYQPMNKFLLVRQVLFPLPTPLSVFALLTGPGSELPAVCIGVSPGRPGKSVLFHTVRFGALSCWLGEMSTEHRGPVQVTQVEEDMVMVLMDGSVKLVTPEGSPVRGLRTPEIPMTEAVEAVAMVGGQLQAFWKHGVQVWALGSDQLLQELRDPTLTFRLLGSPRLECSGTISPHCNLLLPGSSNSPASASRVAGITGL
Chain of c-Kit (P10721 26-976): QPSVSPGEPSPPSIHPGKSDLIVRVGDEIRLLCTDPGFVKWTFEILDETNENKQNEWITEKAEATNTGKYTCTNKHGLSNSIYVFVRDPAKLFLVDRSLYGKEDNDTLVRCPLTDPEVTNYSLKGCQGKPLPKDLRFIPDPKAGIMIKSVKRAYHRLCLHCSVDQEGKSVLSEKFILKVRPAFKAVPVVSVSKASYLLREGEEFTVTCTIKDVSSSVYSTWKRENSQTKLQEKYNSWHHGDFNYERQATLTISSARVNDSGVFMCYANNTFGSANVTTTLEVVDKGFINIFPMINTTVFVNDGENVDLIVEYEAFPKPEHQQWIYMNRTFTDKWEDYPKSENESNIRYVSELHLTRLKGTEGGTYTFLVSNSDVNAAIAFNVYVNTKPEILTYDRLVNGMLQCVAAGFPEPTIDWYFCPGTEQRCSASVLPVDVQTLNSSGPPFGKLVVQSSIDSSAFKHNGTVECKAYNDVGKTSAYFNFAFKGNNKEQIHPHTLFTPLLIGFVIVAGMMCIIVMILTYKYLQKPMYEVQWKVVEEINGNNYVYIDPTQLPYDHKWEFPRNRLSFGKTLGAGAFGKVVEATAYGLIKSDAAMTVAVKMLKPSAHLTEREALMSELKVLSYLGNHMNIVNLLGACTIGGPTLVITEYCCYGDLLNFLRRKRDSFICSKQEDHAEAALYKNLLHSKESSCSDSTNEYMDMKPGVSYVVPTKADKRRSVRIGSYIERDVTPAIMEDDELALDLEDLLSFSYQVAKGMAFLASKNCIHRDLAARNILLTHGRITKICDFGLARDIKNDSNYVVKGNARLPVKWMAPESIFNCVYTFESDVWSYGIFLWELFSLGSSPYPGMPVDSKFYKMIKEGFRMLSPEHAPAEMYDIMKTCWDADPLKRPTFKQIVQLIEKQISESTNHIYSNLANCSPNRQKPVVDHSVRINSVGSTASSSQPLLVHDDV

Row | SMILES | IC50 (Axl) [µM] | also measured
1 | Cc1ccc(NS(=O)(=O)c2ccccc2Cl)c(F)c1C1=Cc2cnc(NC3COC3)nc2N2CCN=C12 [Compound 303, 2-chloro-N-(2-fluoro-4-methyl-3-(2-(oxetan-3-ylamino)-8,9-dihydroimidazo[1′,2′:1,6]pyrido[2,3-d]pyrimidin-6-yl)phenyl)benzenesulfonamide] | > 10 | –
2 | Cc1ccc(NC(=O)c2cc(C(C)(C)F)ccn2)cc1C1=Cc2cnc(Nc3cnn(C)c3)nc2N2CCN=C12 [Compound 196, 4-(2-fluoropropan-2-yl)-N-(4-methyl-3-(2-((1-methyl-1H-pyrazol-4-yl)amino)-8,9-dihydroimidazo[1′,2′:1,6]pyrido[2,3-d]pyrimidin-6-yl)phenyl)picolinamide] | – | IC50 (c-Kit): < 0.1 µM; AUC ([1]; mouse, plasma, PO 25 mg/kg): 11300 ± 3010 ng·h/mL; Cmax ([1]; mouse, plasma, PO 25 mg/kg): 1060 ± 108 ng/mL; Tmax ([1]; mouse, plasma, PO 25 mg/kg): 1.33 ± 0.58 h
3 | CNc1ncc2c(n1)N1CCN=C1C(c1c(C)ccc(NS(=O)(=O)c3ccccc3C(F)(F)F)c1F)=C2 [Compound 298, N-(2-fluoro-4-methyl-3-(2-(methylamino)-8,9-dihydroimidazo[1′,2′:1,6]pyrido[2,3-d]pyrimidin-6-yl)phenyl)-2-(trifluoromethyl)benzenesulfonamide] | > 10 | –
4 | CNc1ncc2c(n1)N1CCN=C1C(c1cc(NS(=O)(=O)Cc3ccccc3)c(F)cc1C)=C2 [Compound 293, N-(2-fluoro-4-methyl-5-(2-(methylamino)-8,9-dihydroimidazo[1′,2′:1,6]pyrido[2,3-d]pyrimidin-6-yl)phenyl)-1-phenylmethanesulfonamide] | > 10 | –
5 | Cc1cc(F)c(NC(=O)c2cc(C(F)(F)F)ccn2)cc1C1=Cc2cnc(NC3COC3)nc2N2CCN=C12 [Compound 178, N-(2-fluoro-4-methyl-5-(2-(oxetan-3-ylamino)-8,9-dihydroimidazo[1′,2′:1,6]pyrido[2,3-d]pyrimidin-6-yl)phenyl)-4-(trifluoromethyl)picolinamide] | – | IC50 (c-Kit): 0.1 to 10 µM; F ([1]; PO 25 mg/kg): 66.7 ± 14.3%; Vd ([1]; mouse, plasma, IV 5 mg/kg): 4.06 ± 0.37 L/kg; half-life ([1]; mouse, plasma, IV 5 mg/kg): 2.76 ± 0.22 h; clearance ([1]; mouse, plasma, IV 5 mg/kg, read-out: Clp): 17 ± 0.3 mL/min/kg; AUC ([1]; mouse, plasma, PO 25 mg/kg): 16300 ± 3490 ng·h/mL; Cmax ([1]; mouse, plasma, PO 25 mg/kg): 2560 ± 505 ng/mL; Tmax ([1]; mouse, plasma, PO 25 mg/kg): 2 h; IC50 (HPK1 (MAP4K1)): < 0.1 µM
6 | CNc1ncc2c(n1)N1CCN=C1C(c1c(C)ccc(NS(=O)(=O)c3c(Cl)cccc3Cl)c1F)=C2 [Compound 296, 2,6-dichloro-N-(2-fluoro-4-methyl-3-(2-(methylamino)-8,9-dihydroimidazo[1′,2′:1,6]pyrido[2,3-d]pyrimidin-6-yl)phenyl)benzenesulfonamide] | > 10 | –
7 | CNc1ncc2c(n1)N1CCN=C1C(Oc1ccc(NC(=O)C3(C(=O)Nc4ccc(F)cc4)CC3)cc1)=C2 [Compound 345, N-(4-fluorophenyl)-N-(4-((2-(methylamino)-8,9-dihydroimidazo[1′,2′:1,6]pyrido[2,3-d]pyrimidin-6-yl)oxy)phenyl)cyclopropane-1,1-dicarboxamide] | 0.1 to 10 | –
8 | CNc1ncc2c(n1)N1CCN=C1C(c1cc(NS(=O)(=O)c3ccccn3)c(F)cc1C)=C2 [Compound 292, N-(2-fluoro-4-methyl-5-(2-(methylamino)-8,9-dihydroimidazo[1′,2′:1,6]pyrido[2,3-d]pyrimidin-6-yl)phenyl)pyridine-2-sulfonamide] | > 10 | –
9 | CNc1ncc2c(n1)N1CCN=C1C(c1ccc(C(=O)Nc3ccccc3Cl)cc1)=C2 [Compound 275, N-(2-chlorophenyl)-4-(2-(methylamino)-8,9-dihydroimidazo[1′,2′:1,6]pyrido[2,3-d]pyrimidin-6-yl)benzamide] | 0.1 to 10 | –
10 | CNc1ncc2c(n1)N1CCN=C1C(c1ccc(C(=O)Nc3cc(C(F)(F)F)ccn3)c(F)c1)=C2 [Compound 270, 2-fluoro-4-(2-(methylamino)-8,9-dihydroimidazo[1′,2′:1,6]pyrido[2,3-d]pyrimidin-6-yl)-N-(4-(trifluoromethyl)pyridin-2-yl)benzamide] | > 10 | –
11 | CNc1ncc2c(n1)N1CCN=C1C(c1ccc(C(=O)Nc3cc(C(F)(F)F)ccn3)cc1C)=C2 [Compound 276, 3-methyl-4-(2-(methylamino)-8,9-dihydroimidazo[1′,2′:1,6]pyrido[2,3-d]pyrimidin-6-yl)-N-(4-(trifluoromethyl)pyridin-2-yl)benzamide] | > 10 | IC50 (HPK1 (MAP4K1)): 0.1 to 10 µM
12 | CNc1ncc2c(n1)N1CCN=C1C(c1c(C)ccc(NS(=O)(=O)c3ccccc3OC(F)(F)F)c1F)=C2 [Compound 299, N-(2-fluoro-4-methyl-3-(2-(methylamino)-8,9-dihydroimidazo[1′,2′:1,6]pyrido[2,3-d]pyrimidin-6-yl)phenyl)-2-(trifluoromethoxy)benzenesulfonamide] | > 10 | –
13 | Cc1ccc(Nc2ncc3c(n2)N2CCN=C2C(c2cc(NC(=O)c4cn(C(C)C)c(=O)n(-c5ccc(F)cc5)c4=O)ccc2C)=C3)cn1 [Compound 266, 3-(4-fluorophenyl)-1-isopropyl-N-(4-methyl-3-(2-((6-methylpyridin-3-yl)amino)-8,9-dihydroimidazo[1′,2′:1,6]pyrido[2,3-d]pyrimidin-6-yl)phenyl)-2,4-dioxo-1,2,3,4-tetrahydropyrimidine-5-carboxamide] | > 10 | –
14 | CNc1ncc2c(n1)N1CCN=C1C(c1c(C)ccc(NS(=O)(=O)c3c(F)cccc3F)c1F)=C2 [Compound 297, 2,6-difluoro-N-(2-fluoro-4-methyl-3-(2-(methylamino)-8,9-dihydroimidazo[1′,2′:1,6]pyrido[2,3-d]pyrimidin-6-yl)phenyl)benzenesulfonamide] | > 10 | –
15 | CNc1ncc2c(n1)N1CCN=C1C(c1cc(NS(=O)(=O)c3ccccc3Cl)c(F)cc1C)=C2 [Compound 286, 2-chloro-N-(2-fluoro-4-methyl-5-(2-(methylamino)-8,9-dihydroimidazo[1′,2′:1,6]pyrido[2,3-d]pyrimidin-6-yl)phenyl)benzenesulfonamide] | > 10 | –
16 | CNc1ncc2c(n1)N1CCN=C1C(c1ccc(C(=O)Nc3cc(C(F)(F)F)ccn3)cc1)=C2 [Compound 273, 4-(2-(methylamino)-8,9-dihydroimidazo[1′,2′:1,6]pyrido[2,3-d]pyrimidin-6-yl)-N-(4-(trifluoromethyl)pyridin-2-yl)benzamide] | 0.1 to 10 | –
17 | Cc1ccc(NS(=O)(=O)c2cc(F)ccc2F)c(F)c1C1=Cc2cnc(NC3COC3)nc2N2CCN=C12 [Compound 302, 2,5-difluoro-N-(2-fluoro-4-methyl-3-(2-(oxetan-3-ylamino)-8,9-dihydroimidazo[1′,2′:1,6]pyrido[2,3-d]pyrimidin-6-yl)phenyl)benzenesulfonamide] | > 10 | –
